{"source": "paper PMC2745115", "about": "(Bioorganic & medicinal chemistry letters, 2008)", "key": {"μ opioid receptor": {"target": "μ opioid receptor (Homo sapiens, UniProt P35372)", "sequence (P35372 whole entry, species assumed)": "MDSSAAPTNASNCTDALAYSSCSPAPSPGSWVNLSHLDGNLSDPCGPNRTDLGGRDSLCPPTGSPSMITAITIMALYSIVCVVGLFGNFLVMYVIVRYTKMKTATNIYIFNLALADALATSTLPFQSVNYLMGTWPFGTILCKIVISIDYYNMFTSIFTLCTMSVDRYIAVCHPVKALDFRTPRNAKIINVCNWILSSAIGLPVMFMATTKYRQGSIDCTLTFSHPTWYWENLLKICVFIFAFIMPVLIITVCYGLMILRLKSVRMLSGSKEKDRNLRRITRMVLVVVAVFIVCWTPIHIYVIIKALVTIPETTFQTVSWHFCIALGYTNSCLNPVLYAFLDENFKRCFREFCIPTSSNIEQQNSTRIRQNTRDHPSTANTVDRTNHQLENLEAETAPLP", "experiment": "Inhibition of [3H]DAMGO binding to CHO cell membranes", "details": "relative to 4d"}, "[1]": {"experiment": "Hydrolysis stability of esters by HPLC", "format": "physicochemical", "details": "pH 7.4, 25 mM phosphate buffer, 37 C, after 24 hours"}, "κ opioid receptor": {"target": "κ opioid receptor (Homo sapiens, UniProt P41145)", "sequence (P41145 whole entry)": "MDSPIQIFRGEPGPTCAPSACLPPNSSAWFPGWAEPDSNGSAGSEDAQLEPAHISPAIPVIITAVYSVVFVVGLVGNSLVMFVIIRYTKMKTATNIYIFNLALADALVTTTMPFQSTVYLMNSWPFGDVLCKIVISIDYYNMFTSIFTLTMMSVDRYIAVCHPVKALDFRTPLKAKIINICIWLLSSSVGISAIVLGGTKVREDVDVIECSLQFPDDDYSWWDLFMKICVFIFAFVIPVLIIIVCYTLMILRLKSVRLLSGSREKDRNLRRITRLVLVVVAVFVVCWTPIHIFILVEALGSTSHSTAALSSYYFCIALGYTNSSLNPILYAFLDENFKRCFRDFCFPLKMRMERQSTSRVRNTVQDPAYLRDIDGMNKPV", "experiment": "Inhibition of [3H]U69,593 binding to CHO cell membranes", "details": "relative to butorphanol"}, "[2]": {"details": "humans; cited from earlier work"}, "[3]": {"details": "rhesus monkeys; cited from earlier work"}}}
{"smiles": "Cl.O[C@@]12CCCC[C@@]13CCN(CC1CCC1)[C@@H]2Cc1ccc(OCCc2ccccc2)cc13", "note": "[5d]", "values": [{"measurement": "less binding affinity at the μ opioid receptor than 4d", "setting": "μ opioid receptor", "result": 164, "unit": "fold"}]}
{"smiles": "Cl.O=C(Cc1ccccc1)Oc1ccc2c(c1)[C@@]13CCCC[C@@]1(O)[C@@H](C2)N(CC1CCC1)CC3", "note": "[4b]", "values": [{"measurement": "hydrolysis of the esters", "setting": "[1]", "result": "No hydrolysis"}]}
{"smiles": "Cl.O=C(COc1ccccc1)Oc1ccc2c(c1)[C@@]13CCCC[C@@]1(O)[C@@H](C2)N(CC1CCC1)CC3", "note": "[4d, (-)-N-cyclobutylmethylmorphinan-3-yl-14-ol phenoxyacetate]", "values": [{"measurement": "more potent binder at the κ receptor than butorphanol", "setting": "κ opioid receptor", "result": "four-fold"}]}
{"smiles": "Oc1ccc2c(c1)[C@@]13CCCC[C@@]1(O)[C@@H](C2)N(CC1CCC1)CC3", "note": "[3b, butorphanol]", "values": [{"measurement": "analgesic potency, times that of meperdine", "setting": "[2]", "result": "30 – 40 times"}, {"measurement": "analgesic potency, times that of morphine", "setting": "[2]", "result": "4 – 8 times"}, {"measurement": "analgesic potency, times that of pentazocine", "setting": "[2]", "result": "16 – 24 times"}, {"measurement": "cocaine self-administration", "setting": "[3]", "result": "decrease cocaine self-administration"}, {"measurement": "food-maintained responding", "setting": "[3]", "result": "without producing a significant change"}]}
{"smiles": "Cc1ccc(C(C)C(=O)Oc2ccc3c(c2)[C@@]24CCCC[C@@]2(O)[C@@H](C3)N(CC2CCC2)CC4)cc1.Cl", "note": "(stereo partly drawn) [4c]", "values": [{"measurement": "hydrolysis of the esters", "setting": "[1]", "result": "No hydrolysis"}]}
